Results as given in the supplement of paper PMC10307832.

Tests used:
Experiment in all cases: relative viability (nuclei count vs DMSO), 5 days (fraction); higher = more cells survive
[1] = test system: NCI-H520
Method in brief: (§1)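 Relative viability was taken as the ratio of nuclei in treated wells to nuclei in vehicle wells. Lung cancer cell lines in 1536-well plates received compounds by pin tool one day after seeding, either one drug alone or a fixed anchor-drug dose plus five library-drug doses (not always all listed) in √10 steps. Nuclei were counted on 4× images after 5 days of treatment, and values are medians of duplicate plates.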

[2] = test system: EKVX
Method in brief: as §1

[3] = test system: HCC-827
Method in brief: as §1

[4] = test system: SW 1573
Method in brief: as §1

[5] = test system: RERF-LC-KJ
Method in brief: as §1

[6] = test system: NCI-H322M
Method in brief: as §1

[7] = test system: NCI-H2405
Method in brief: as §1

[8] = test system: NCI-H1355
Method in brief: as §1

[9] = test system: ABC-1
Method in brief: as §1

[10] = test system: NCI-H1437
Method in brief: as §1

[11] = test system: H3255
Method in brief: as §1

[12] = test system: NCI-H2228
Method in brief: as §1

[13] = test system: LK-2
Method in brief: as §1

[14] = test system: PC-3 [JPC-3]
Method in brief: as §1

[15] = test system: HCC-15
Method in brief: as §1

[16] = test system: NCI-H1650
Method in brief: as §1

[17] = test system: NCI-H2342
Method in brief: as §1

[18] = test system: NCI-H661
Method in brief: as §1

[19] = test system: COR-L23
Method in brief: as §1

[20] = test system: NCI-H1734
Method in brief: as §1

[21] = test system: CAL-12T
Method in brief: as §1

[22] = test system: PC-14
Method in brief: as §1

SMILES: NC(=O)Nc1cc(-c2cccc(F)c2)sc1C(=O)N[C@H]1CCCNC1 [AZD7762] + O=C(c1cc(Cc2n[nH]c(=O)c3ccccc23)ccc1F)N1CCN(C(=O)C2CC2)CC1 [Olaparib] (partner 8 µM)
- relative viability ([1]; first compound 0.01 µM): 0.367
- relative viability ([1]; first compound 0.03162 µM): 0.364
- relative viability ([1]; first compound 0.1 µM): 0.27
- relative viability ([1]; first compound 0.3162 µM): 0.223
- relative viability ([1]; first compound 1 µM): 0.194
- relative viability ([2]; first compound 0.01 µM): 0.82
- relative viability ([2]; first compound 0.03162 µM): 1.04
- relative viability ([2]; first compound 0.1 µM): 0.62
- relative viability ([2]; first compound 0.3162 µM): 0.844
- relative viability ([2]; first compound 1 µM): 0.393
- relative viability ([3]; first compound 0.01 µM): 0.654
- relative viability ([3]; first compound 0.03162 µM): 0.678
- relative viability ([3]; first compound 0.1 µM): 0.64
- relative viability ([3]; first compound 0.3162 µM): 0.267
- relative viability ([3]; first compound 1 µM): 0.288
- relative viability ([4]; first compound 0.01 µM): 0.453
- relative viability ([4]; first compound 0.03162 µM): 0.526
- relative viability ([4]; first compound 0.1 µM): 0.403
- relative viability ([4]; first compound 0.3162 µM): 0.408
- relative viability ([4]; first compound 1 µM): 0.221
- relative viability ([5]; first compound 0.01 µM): 0.928
- relative viability ([5]; first compound 0.03162 µM): 0.922
- relative viability ([5]; first compound 0.1 µM): 1.01
- relative viability ([5]; first compound 0.3162 µM): 0.893
- relative viability ([5]; first compound 1 µM): 0.65
- relative viability ([6]; first compound 0.01 µM): 0.795
- relative viability ([6]; first compound 0.03162 µM): 0.933
- relative viability ([6]; first compound 0.1 µM): 0.85
- relative viability ([6]; first compound 0.3162 µM): 0.627
- relative viability ([6]; first compound 1 µM): 0.354
- relative viability ([7]; first compound 0.01 µM): 0.889
- relative viability ([7]; first compound 0.03162 µM): 0.911
- relative viability ([7]; first compound 0.1 µM): 0.837
- relative viability ([7]; first compound 0.3162 µM): 0.816
- relative viability ([7]; first compound 1 µM): 0.294
- relative viability ([8]; first compound 0.01 µM): 0.705
- relative viability ([8]; first compound 0.03162 µM): 0.798
- relative viability ([8]; first compound 0.1 µM): 0.862
- relative viability ([8]; first compound 0.3162 µM): 0.862
- relative viability ([8]; first compound 1 µM): 0.615
- relative viability ([9]; first compound 0.01 µM): 0.968
- relative viability ([9]; first compound 0.03162 µM): 0.857
- relative viability ([9]; first compound 0.1 µM): 0.893
- relative viability ([9]; first compound 0.3162 µM): 0.938
- relative viability ([9]; first compound 1 µM): 0.685
- relative viability ([10]; first compound 0.01 µM): 0.696
- relative viability ([10]; first compound 0.03162 µM): 0.648
- relative viability ([10]; first compound 0.1 µM): 0.621
- relative viability ([10]; first compound 0.3162 µM): 0.612
- relative viability ([10]; first compound 1 µM): 0.433
- relative viability ([11]; first compound 0.01 µM): 0.551
- relative viability ([11]; first compound 0.03162 µM): 0.542
- relative viability ([11]; first compound 0.1 µM): 0.59
- relative viability ([11]; first compound 0.3162 µM): 0.518
- relative viability ([11]; first compound 1 µM): 0.497
- relative viability ([12]; first compound 0.01 µM): 0.659
- relative viability ([12]; first compound 0.03162 µM): 0.778
- relative viability ([12]; first compound 0.1 µM): 0.637
- relative viability ([12]; first compound 0.3162 µM): 0.311
- relative viability ([12]; first compound 1 µM): 0.193
- relative viability ([13]; first compound 0.01 µM): 0.789
- relative viability ([13]; first compound 0.03162 µM): 1
- relative viability ([13]; first compound 0.1 µM): 0.729
- relative viability ([13]; first compound 0.3162 µM): 0.623
- relative viability ([13]; first compound 1 µM): 0.435
- relative viability ([14]; first compound 0.01 µM): 1.19
- relative viability ([14]; first compound 0.03162 µM): 1.06
- relative viability ([14]; first compound 0.1 µM): 1.12
- relative viability ([14]; first compound 0.3162 µM): 1.05
- relative viability ([14]; first compound 1 µM): 0.634
- relative viability ([15]; first compound 0.01 µM): 0.824
- relative viability ([15]; first compound 0.03162 µM): 0.948
- relative viability ([15]; first compound 0.1 µM): 0.898
- relative viability ([15]; first compound 0.3162 µM): 1.04
- relative viability ([15]; first compound 1 µM): 0.983
- relative viability ([16]; first compound 0.01 µM): 0.787
- relative viability ([16]; first compound 0.03162 µM): 0.863
- relative viability ([16]; first compound 0.1 µM): 0.905
- relative viability ([16]; first compound 0.3162 µM): 0.658
- relative viability ([16]; first compound 1 µM): 0.23
- relative viability ([17]; first compound 0.01 µM): 0.449
- relative viability ([17]; first compound 0.03162 µM): 0.393
- relative viability ([17]; first compound 0.1 µM): 0.496
- relative viability ([17]; first compound 0.3162 µM): 0.457
- relative viability ([17]; first compound 1 µM): 0.515
- relative viability ([18]; first compound 0.01 µM): 0.798
- relative viability ([18]; first compound 0.03162 µM): 0.779
- relative viability ([18]; first compound 0.1 µM): 0.711
- relative viability ([18]; first compound 0.3162 µM): 0.503
- relative viability ([18]; first compound 1 µM): 0.426
- relative viability ([19]; first compound 0.01 µM): 0.405
- relative viability ([19]; first compound 0.03162 µM): 0.248
- relative viability ([19]; first compound 0.1 µM): 0.215
- relative viability ([19]; first compound 0.3162 µM): 0.166
- relative viability ([19]; first compound 1 µM): 0.0843
- relative viability ([20]; first compound 0.01 µM): 0.746
- relative viability ([20]; first compound 0.03162 µM): 0.663
- relative viability ([20]; first compound 0.1 µM): 0.72
- relative viability ([20]; first compound 0.3162 µM): 0.491
- relative viability ([20]; first compound 1 µM): 0.316
- relative viability ([21]; first compound 0.01 µM): 0.908
- relative viability ([21]; first compound 0.03162 µM): 0.756
- relative viability ([21]; first compound 0.1 µM): 0.865
- relative viability ([21]; first compound 0.3162 µM): 0.489
- relative viability ([21]; first compound 1 µM): 0.2
- relative viability ([22]; first compound 0.01 µM): 0.248
- relative viability ([22]; first compound 0.03162 µM): 0.157
- relative viability ([22]; first compound 0.1 µM): 0.0969
- relative viability ([22]; first compound 0.3162 µM): 0.0837
- relative viability ([22]; first compound 1 µM): 0.0568
